From patent US9918948B2, “Methods and compositions for treating symptoms associated with post-traumatic stress disorder using cyclobenzaprine” (TONIX PHARMA HOLDINGS LIMITED, priority 2009, dated 2018)
Like-named read-outs stand apart in the source and are kept apart here.

How the values were obtained:
PTSD symptoms [1] = conditions: 1 to 4 mg orally at bedtime, alone or with sertraline or prazosin; one to three months after the trauma
Excerpt: (§1) At this point the usual natural history of the disease has progressed to the point where patients typically experience recurrent nightmares associated with their traumatic events. […] In addition patients at this stage in the evolution of their disorder have a constellation of daytime symptoms consisting of hyperarousal, hypervigilance, exaggerated startle, and other signs of overactive vigilance behaviors. Also, at this point patients begin to engage in avoidant behaviors such that they actively avoided people and circumstances that might trigger memories of the traumatic event. Lastly, patients begin to experience daytime reexperiencing of their traumatic events in the form of flashbacks. […] These include hyperarousal, hypervigilance, exaggerated startle, and avoidant behavior.

PTSD symptoms [2] = conditions: 1 to 4 mg orally at bedtime, alone or with sertraline or prazosin, started within one week of the trauma
fibromyalgia patients = conditions: 120 fibromyalgia patients, 10 to 40 mg, 12-week period; cited from earlier work
PTSD symptoms [3] = conditions: 1 to 4 mg orally at bedtime, alone or with sertraline or prazosin; PTSD present for greater than three months
Excerpt: as §1, with “In patients with well-established PTSD that has been present for greater than three months. At” for “At”, “nightmares and daytime flashbacks” for “nightmares”, “with highly vivid memories of the” for “with their”, “traumatic event.” for “traumatic events.”

[4] = test system: sleep disturbance in PTSD; conditions: administered at bedtime; cited from earlier work

Row | Structure (SMILES) | daytime symptoms not associated with sleep (hyperarousal, hypervigilance, exaggerated startle, avoidant behavior) (PTSD symptoms [1]) | sleep associated symptomatology (nightmares, distress, insomnia, daytime fatigue, cognitive function) (PTSD symptoms [1]) | avoiding behavior or hyperarousal symptoms (PTSD symptoms [2]) | daytime fatigue compared to untreated patients (PTSD symptoms [2]) | sleep quality compared to untreated patients (PTSD symptoms [2]) | frequency of nightmares or flashbacks (PTSD symptoms [2]; three-month interval) | pain score (fibromyalgia patients) | quality of sleep (fibromyalgia patients) | total number of tender points and muscle tightness (fibromyalgia patients) | daytime symptoms not associated with sleep (hyperarousal, hypervigilance, exaggerated startle, avoidant behavior) (PTSD symptoms [3]) | sleep associated symptomatology (nightmares, distress, insomnia, daytime fatigue, cognitive function) (PTSD symptoms [3]) | sleep [4]
1 | CN(C)CCC=C1c2ccccc2C=Cc2ccccc21 [cyclobenzaprine, 3-(5H-dibenzo[a,d]cyclohepten-5-ylidene)-N,N-dimethyl-1-propanamine] | greatly reduced or eliminated | significant improvements | No avoiding behavior or hyperarousal symptoms develop | diminished | substantially better in quality | declines eventually approaching zero | significantly improved | significantly improved | reduction | greatly reduced or eliminated | significant improvements | 
2 | COc1cc2nc(N3CCN(C(=O)c4ccco4)CC3)nc(N)c2cc1OC [prazosin] |  |  |  |  |  |  |  |  |  |  |  | improves sleep
